Here are results for 1 molecule from patent US11160790B2, “Method of inhibiting Cryptococcus growth using eltrombopag” (priority 2019, dated 2021).

In brackets after ≈: the same amount, converted by molar mass.

Experiment [1] relates to Cryptococcus neoformans 89-610. The experiment in a line: Microdilution assay (CLSI M27-A3/M38-A2), MIC and MFC. In kind it is cell-based. The following applies: 35° C. The procedure: (§1) Cryptococcus and Candida species were cultured in yeast extract-peptone-dextrose (YPD) medium (containing 1% yeast extract, 2% peptone, 2% glucose, and optionally 2% agar for preparation of an agar plate). Aspergillus, Fusarium, and Trichophyton species were cultured on potato dextrose agar (PDA) plate (containing 2% potato infusion, […], and 1.5% agar). A microdilution assay was performed to determine minimum inhibitory concentration (MIC), minimum fungicidal concentration (MFC), and fractional inhibitory concentration (FIC) index (FICI) using RPMI 1640 medium buffered with MOPS. Minimal medium (containing 15 mM glucose, 10 mM magnesium sulfate, 29.4 mM potassium dihydrogen phosphate, 13 mM glycine, and 3 μM thiamine hydrochloride; pH 5.5) was used for capsule size assay and melanization assay.
(§2) To investigate the inhibitory effects of eltrombopag on the growth of fungi, microdilution assays (based on the CLSI standards M27-A3 and M38-A2) were performed with multiple pathogenic yeasts and filamentous fungi including Cryptococcus, Candida, Aspergillus, Fusarium, and Trichophyton (TABLE 1). Briefly, yeast or filamentous fungi strains at a final concentration of about 10^3 cfu/mL were inoculated in RPMI 1640 medium containing two-fold serially diluted eltrombopag (started at 64 mg/L). In addition, fungal cultures without eltrombopag were used as positive controls, while media without fungal cells and eltrombopag were used as negative controls. The 96-well plates loaded with the aforementioned cultures were incubated at 35° C. for 48 hours, and the growth of cells in each well was examined to determine the minimum inhibitory concentration (MIC) of eltrombopag, which was the lowest drug concentration at which there was no visible cell growth. Thereafter, 3 μL of the fungal culture from each well of the 96-well plates was spotted onto eltrombopag-free YPD (for yeasts) or PDA (for filamentous fungi) agar plates, which were then incubated at 35° C. for 48 hours to examine colony formation Minimum fungicidal concentration (MFC) was determined to be the lowest drug concentration at which no colonies formed. The assays were performed in triplicate.

The test system of experiment [2] is Fusarium solani Fungus III-6. Described as above. The experiment is classed as cell-based. On the procedure:
as §1, §2

Another experiment concerns most Candida species. The experiment in a line: Microdilution assay, summary for Candida species. The experiment is classed as cell-based. On the procedure:
as §1, with “Minimal medium (containing 15 mM glucose, 10 mM magnesium sulfate, 29.4 mM potassium dihydrogen phosphate, 13 mM glycine, and 3 μM thiamine hydrochloride; pH 5.5) was used for capsule size assay and melanization assay.” left out
To investigate the inhibitory effects of eltrombopag on the growth of fungi, microdilution assays (based on the CLSI standards M27-A3 and M38-A2) were performed with multiple pathogenic yeasts and filamentous fungi including Cryptococcus, Candida, Aspergillus, Fusarium, and Trichophyton (TABLE 1). […] Thereafter, 3 μL of the fungal culture from each well of the 96-well plates was spotted onto eltrombopag-free YPD (for yeasts) or PDA (for filamentous fungi) agar plates, which were then incubated at 35° C. for 48 hours to examine colony formation Minimum fungicidal concentration (MFC) was determined to be the lowest drug concentration at which no colonies formed. […]
A general note: Dilution methods test growth across graded concentrations, often in twofold steps.

The test system of experiment [3] is C. neoformans H99. The experiment in a line: Growth kinetics in RPMI 1640 (cell density). The experiment is classed as cell-based, Cryptococcus neoformans. On the procedure:
To study the inhibitory effects of eltrombopag on the growth of Cryptococcus, C. neoformans H99 cells were cultured overnight at 30° C. and then washed twice with double-distilled water. The cells were diluted to 0.0005 OD600/mL with RPMI 1640 medium, and 5 mL of the cell suspension was treated with eltrombopag at 0.5, 0.25, 0.125, 0.06, or 0 mg/L and incubated at 37° C. with shaking at 150 rpm for 4 days. The cell density of the suspensions was measured every 12 hours with a SpectraMax190 microplate reader (Molecular Devices), and growth curves were plotted using Prism 5.03 (GraphPad Software, San Diego, Calif., USA). The experiments were performed in triplicate, and the results were presented as mean±standard deviation.

The subject of the next experiment is C. deuterogattii 8265. Kind of experiment: Disk diffusion susceptibility assay. In kind it is cell-based, Cryptococcus deuterogattii. The following applies: 10 μg per disk; 25° C., 30° C. or 37° C., 48 hours. On the procedure:
A disk diffusion susceptibility assay was performed to further investigate the fungistatic activity of eltrombopag at different temperatures. Briefly, C. neoformans […] or C. deuterogattii 8265 was cultured overnight at 30° C., and 100 μL of the culture (at an OD600 of about 0.1) was spread on RPMI 1640 agar plates. Paper disks (with a diameter of 6 mm) were then placed on these agar plates, and either 10 μg eltrombopag (dissolved in 5 μL DMSO) or 5 μL DMSO (control) was added to each disk. The agar plates were incubated at 25° C., 30° C., or 37° C. for 48 hours and photographed.
Background: Agar diffusion results depend on both activity and mobility in agar.

In experiment [4] the test system is C. neoformans H99. The experiment in a line: Checkerboard titration assay. The experiment is classed as cell-based, Cryptococcus neoformans. The following applies: 30° C., 48 hours. The procedure:
(§3) Amphotericin B plus 5-flucytosine or fluconazole are combinations often used to treat cryptococcal meningitis. To investigate the synergy between eltrombopag and existing antifungal drugs or other drugs, a checkerboard titration assay was performed on Cryptococcus. Briefly, C. neoformans […] and C. deuterogattii […] cells were cultured overnight at 30° C. and then washed twice with double-distilled water. The cells were diluted to 10^3 cfu/mL with RPMI 1640 medium, and 100 μL of the cell suspension was added to each well of a 96-well polystyrene plate. […] After incubation at 30° C. for 48 hours, the growth of cells under different treatments was assessed by measuring the light absorbance at 600 nm (OD600). This assay allows the determination of fractional inhibitory concentration index (FICI): (MICcombined of drug A/MICalone of drug A)+(MICcombined of drug B/MICalone of drug B). After the checkerboard titration assay, the cells (3 μL) in the 96-well plate were transferred to drug-free YPD agar plates. After incubation at 30° C. for 48 hours, the agar plates were photographed and assessed for cell viability.

The subject of experiment [5] is C. deuterogattii R265. The experiment in a line: Checkerboard titration assay. In kind it is cell-based, Cryptococcus deuterogattii. Particulars: 30° C., 48 hours. The procedure: as §3
The subject of experiment [6] is C. deuterogattii R265. The experiment in a line: Capsule size assay (India ink). In kind it is cell-based, Cryptococcus deuterogattii. Particulars: 0.06 mg/L, 37° C., 48 hours, versus no eltrombopag treatment. The procedure: as §1
Cryptococcus capsule, the structure attached to the outer surface of the cell wall and mainly composed of polysaccharides, can increase the resistance of Cryptococcus to host immune response (such as phagocytosis by macrophages) and harsh conditions (such as extreme acidity or alkalinity, high CO2 levels, or iron deprivation). To test whether eltrombopag affects capsule formation in Cryptococcus, C. neoformans H99 and C. deuterogattii R265 cells were cultured overnight in YPD media at 30° C. […] Statistical significance for the data sets was determined using a two-tailed t test.

`CC1=NN(c2ccc(C)c(C)c2)C(=O)/C1=N\Nc1cccc(-c2cccc(C(=O)O)c2)c1O` [eltrombopag]: the MIC is 0.125 µg/mL (≈ 0.283 µM) in experiment [1] (Cryptococcus neoformans, 89610, 48 h, 48 hours, azole-resistant strain); above 64 µg/mL in experiment [2] (Fusarium solani, 35° C., 48 hours); at least 64 mg/1 against most Candida species. Also, the MFC is above 64 µg/mL in experiment [1] (Cryptococcus neoformans, 89610, 48 hours on drug-free agar) and above 64 µg/mL in experiment [2] (Fusarium solani, 35° C., 48 hours on drug-free agar). Also, the antifungal activity entry in experiment [2] is recorded as “no antifungal activity”. Besides, the “growth kinetics (cell density)” value was “did not affect the growth kinetics” in the experiment on C. neoformans H99 [3] (0.06 mg/L); “static growth of C. neoformans was maintained” in the experiment on C. neoformans H99 [3] (0.25 mg/L or 0.5 mg/L, 37° C., 96 hours); “inhibited the growth of C. neoformans in a dose-dependent manner” in the experiment on C. neoformans H99 [3] (0.5, 0.25, 0.125, 0.06 mg/L, 37° C., 4 days). Besides, the inhibition zones entry in the experiment with C. deuterogattii 8265 is “significantly larger inhibition zones were observed at 37 °C”. In addition, the MICalone in the experiment on C. neoformans H99 [4] is 0.25 mg/L; with C. deuterogattii R265 [5], 0.5 mg/L. Moreover, the “MICcombined of ETP” value in the experiment on C. neoformans H99 [4] (ETP in combination with AMB) is on record as 0.03 mg/L; in the experiment on C. neoformans H99 [4] (ETP in combination with CsA), 0.25 mg/L; in the experiment on C. neoformans H99 [4] (ETP in combination with FK506), 0.015 mg/L; with C. neoformans H99 [4] (ETP in combination with FLC), 0.03 mg/L; in the experiment on C. deuterogattii R265 [5] (ETP in combination with AMB), 0.03 mg/L; in the experiment on C. deuterogattii R265 [5] (ETP in combination with CsA), 1 mg/L. The “MICcombined of ETP” value amounted to 0.015 mg/L in the experiment on C. deuterogattii R265 [5] (ETP in combination with FK506) and 0.03 mg/L with C. deuterogattii R265 [5] (ETP in combination with FLC). Also, the capsule size result in the experiment with C. deuterogattii R265 [6] was “capsule size significantly reduced”.
